# Active and inactive are the calls of the source. Rule as the data show it, for most assays here: actives have a measured IC50 and inactives only a lower limit.
# What was measured:
# SN12K1 = experiment: cells; format: functional; details: Homo sapiens
# P388 = experiment: cells; format: functional; details: Mus musculus
# P388/ADR = experiment: cells; format: functional; details: Mus musculus
# [1] = target: T1, Sentrin-specific protease 6 (Homo sapiens, UniProt Q9GZR1); format: functional
# T1 sequence (Q9GZR1 whole entry): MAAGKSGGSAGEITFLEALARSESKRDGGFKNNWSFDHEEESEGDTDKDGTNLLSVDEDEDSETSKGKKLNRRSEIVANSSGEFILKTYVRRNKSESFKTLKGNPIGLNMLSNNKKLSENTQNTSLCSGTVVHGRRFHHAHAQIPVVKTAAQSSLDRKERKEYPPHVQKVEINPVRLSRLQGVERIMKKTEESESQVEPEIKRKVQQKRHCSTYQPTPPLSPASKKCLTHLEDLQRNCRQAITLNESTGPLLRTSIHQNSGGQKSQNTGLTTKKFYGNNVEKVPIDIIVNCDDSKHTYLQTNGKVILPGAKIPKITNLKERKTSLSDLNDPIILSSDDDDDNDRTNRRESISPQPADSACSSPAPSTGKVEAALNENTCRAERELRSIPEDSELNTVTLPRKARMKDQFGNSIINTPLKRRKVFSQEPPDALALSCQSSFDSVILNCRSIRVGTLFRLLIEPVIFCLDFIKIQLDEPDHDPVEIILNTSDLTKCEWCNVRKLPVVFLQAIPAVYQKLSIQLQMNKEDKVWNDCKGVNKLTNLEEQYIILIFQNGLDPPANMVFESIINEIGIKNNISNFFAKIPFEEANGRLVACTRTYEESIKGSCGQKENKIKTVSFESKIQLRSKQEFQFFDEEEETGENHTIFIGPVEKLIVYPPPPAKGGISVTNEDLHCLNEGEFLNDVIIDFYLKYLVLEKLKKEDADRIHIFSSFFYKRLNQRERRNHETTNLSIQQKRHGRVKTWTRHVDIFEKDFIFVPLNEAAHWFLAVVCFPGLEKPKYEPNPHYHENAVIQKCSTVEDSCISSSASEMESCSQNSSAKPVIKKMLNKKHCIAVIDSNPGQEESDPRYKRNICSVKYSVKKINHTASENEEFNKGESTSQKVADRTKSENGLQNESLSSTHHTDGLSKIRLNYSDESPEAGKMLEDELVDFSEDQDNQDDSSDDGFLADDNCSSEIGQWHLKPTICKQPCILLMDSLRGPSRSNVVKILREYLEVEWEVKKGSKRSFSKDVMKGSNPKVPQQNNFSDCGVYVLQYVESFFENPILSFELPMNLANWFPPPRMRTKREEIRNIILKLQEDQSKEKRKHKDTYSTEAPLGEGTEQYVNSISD
# [2] = target: T2, Sentrin-specific protease 7 (Homo sapiens, UniProt Q9BQF6); format: functional;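 also: Luminescence-based dose-response confirmation of ultra-high-throughput screening hits, measuring inhibition of SENP7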
# T2 sequence (Q9BQF6 whole entry): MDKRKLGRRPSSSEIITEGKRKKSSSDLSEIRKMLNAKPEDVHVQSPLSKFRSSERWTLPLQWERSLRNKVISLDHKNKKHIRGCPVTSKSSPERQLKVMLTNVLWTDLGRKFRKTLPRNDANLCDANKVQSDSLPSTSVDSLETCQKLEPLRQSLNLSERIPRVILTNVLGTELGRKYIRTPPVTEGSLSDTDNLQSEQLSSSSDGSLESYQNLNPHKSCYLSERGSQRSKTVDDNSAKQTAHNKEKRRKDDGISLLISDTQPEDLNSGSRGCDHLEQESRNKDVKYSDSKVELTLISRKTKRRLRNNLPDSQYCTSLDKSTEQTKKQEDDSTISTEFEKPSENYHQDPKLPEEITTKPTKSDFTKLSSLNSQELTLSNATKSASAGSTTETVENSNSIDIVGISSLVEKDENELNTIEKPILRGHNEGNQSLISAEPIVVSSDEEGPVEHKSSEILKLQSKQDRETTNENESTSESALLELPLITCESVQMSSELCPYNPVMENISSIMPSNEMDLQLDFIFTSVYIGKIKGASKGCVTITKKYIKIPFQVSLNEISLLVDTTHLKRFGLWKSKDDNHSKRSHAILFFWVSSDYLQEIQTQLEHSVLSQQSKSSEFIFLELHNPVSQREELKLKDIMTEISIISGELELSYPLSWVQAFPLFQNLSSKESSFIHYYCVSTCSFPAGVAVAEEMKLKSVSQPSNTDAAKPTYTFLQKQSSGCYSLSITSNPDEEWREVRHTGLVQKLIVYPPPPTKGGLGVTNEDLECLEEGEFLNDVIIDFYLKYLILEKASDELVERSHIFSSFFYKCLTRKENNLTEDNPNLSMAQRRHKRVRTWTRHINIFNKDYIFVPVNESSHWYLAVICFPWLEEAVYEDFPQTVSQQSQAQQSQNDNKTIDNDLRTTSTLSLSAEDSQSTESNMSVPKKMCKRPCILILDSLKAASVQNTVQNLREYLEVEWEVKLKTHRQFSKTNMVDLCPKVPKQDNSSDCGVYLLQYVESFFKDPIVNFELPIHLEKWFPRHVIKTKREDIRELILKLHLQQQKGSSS
# [3] = target: T3, Sentrin-specific protease 8 (Homo sapiens, UniProt Q96LD8); format: functional;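 also: luminescence read-out of SENP8 inhibition, dose-response confirmation following an ultra-high-throughput screen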
# T3 sequence (Q96LD8 whole entry): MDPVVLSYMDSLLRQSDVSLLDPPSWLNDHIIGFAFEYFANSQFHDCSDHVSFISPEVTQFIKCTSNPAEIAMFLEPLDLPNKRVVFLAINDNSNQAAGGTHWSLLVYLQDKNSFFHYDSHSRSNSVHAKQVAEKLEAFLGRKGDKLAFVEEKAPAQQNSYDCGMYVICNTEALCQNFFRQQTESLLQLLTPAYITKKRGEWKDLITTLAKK
# Caspase-3 [4] = target: T4, Caspase-3 (Homo sapiens, UniProt P42574); format: functional
# T4 sequence (P42574 whole entry): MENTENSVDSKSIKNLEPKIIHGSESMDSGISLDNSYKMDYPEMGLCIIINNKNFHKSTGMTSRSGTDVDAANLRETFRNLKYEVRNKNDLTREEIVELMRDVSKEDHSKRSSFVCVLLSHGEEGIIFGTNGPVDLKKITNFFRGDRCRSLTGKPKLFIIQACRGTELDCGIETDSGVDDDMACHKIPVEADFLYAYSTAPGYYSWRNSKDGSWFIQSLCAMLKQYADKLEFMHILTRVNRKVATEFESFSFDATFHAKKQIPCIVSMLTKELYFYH
# [5] = target: T1, Sentrin-specific protease 6; experiment: SAR Analysis of small molecule inhibitors of Sentrin-specific protease 6 (SENP6) using a Luminescent assay. [Related pubchem assays (depositor defined):AID2582, AID2599]; format: functional
# [6] = target: T2, Sentrin-specific protease 7; experiment: SENP7 protease inhibitors, SAR follow-up, biochemical, luminescence (AID 504497); format: functional
# [7] = target: T3, Sentrin-specific protease 8; experiment: SENP8 protease inhibitors, SAR follow-up, biochemical, luminescence (AID 504501); format: functional
# Caspase-3 [8] = target: T4, Caspase-3; experiment: SAR Analysis of small molecule inhibitors of Sentrin-specific proteases (SENPs) using a Caspase-3 Selectivity assay. [Related pubchem assays (depositor defined):AID2540, AID2599, AID434973, AID489001]; format: functional
# [9] = Luminescence Cell-Based Dose Retest to Confirm Inhibitors of Cancer Stem Cells. [Related pubchem assays (depositor defined):AID2717, AID2721]; format: functional; details: Homo sapiens
# [10] = target: T5, Histone-lysine N-methyltransferase NSD2 (Homo sapiens, UniProt O96028); format: biochemical
# T5 sequence (O96028 whole entry): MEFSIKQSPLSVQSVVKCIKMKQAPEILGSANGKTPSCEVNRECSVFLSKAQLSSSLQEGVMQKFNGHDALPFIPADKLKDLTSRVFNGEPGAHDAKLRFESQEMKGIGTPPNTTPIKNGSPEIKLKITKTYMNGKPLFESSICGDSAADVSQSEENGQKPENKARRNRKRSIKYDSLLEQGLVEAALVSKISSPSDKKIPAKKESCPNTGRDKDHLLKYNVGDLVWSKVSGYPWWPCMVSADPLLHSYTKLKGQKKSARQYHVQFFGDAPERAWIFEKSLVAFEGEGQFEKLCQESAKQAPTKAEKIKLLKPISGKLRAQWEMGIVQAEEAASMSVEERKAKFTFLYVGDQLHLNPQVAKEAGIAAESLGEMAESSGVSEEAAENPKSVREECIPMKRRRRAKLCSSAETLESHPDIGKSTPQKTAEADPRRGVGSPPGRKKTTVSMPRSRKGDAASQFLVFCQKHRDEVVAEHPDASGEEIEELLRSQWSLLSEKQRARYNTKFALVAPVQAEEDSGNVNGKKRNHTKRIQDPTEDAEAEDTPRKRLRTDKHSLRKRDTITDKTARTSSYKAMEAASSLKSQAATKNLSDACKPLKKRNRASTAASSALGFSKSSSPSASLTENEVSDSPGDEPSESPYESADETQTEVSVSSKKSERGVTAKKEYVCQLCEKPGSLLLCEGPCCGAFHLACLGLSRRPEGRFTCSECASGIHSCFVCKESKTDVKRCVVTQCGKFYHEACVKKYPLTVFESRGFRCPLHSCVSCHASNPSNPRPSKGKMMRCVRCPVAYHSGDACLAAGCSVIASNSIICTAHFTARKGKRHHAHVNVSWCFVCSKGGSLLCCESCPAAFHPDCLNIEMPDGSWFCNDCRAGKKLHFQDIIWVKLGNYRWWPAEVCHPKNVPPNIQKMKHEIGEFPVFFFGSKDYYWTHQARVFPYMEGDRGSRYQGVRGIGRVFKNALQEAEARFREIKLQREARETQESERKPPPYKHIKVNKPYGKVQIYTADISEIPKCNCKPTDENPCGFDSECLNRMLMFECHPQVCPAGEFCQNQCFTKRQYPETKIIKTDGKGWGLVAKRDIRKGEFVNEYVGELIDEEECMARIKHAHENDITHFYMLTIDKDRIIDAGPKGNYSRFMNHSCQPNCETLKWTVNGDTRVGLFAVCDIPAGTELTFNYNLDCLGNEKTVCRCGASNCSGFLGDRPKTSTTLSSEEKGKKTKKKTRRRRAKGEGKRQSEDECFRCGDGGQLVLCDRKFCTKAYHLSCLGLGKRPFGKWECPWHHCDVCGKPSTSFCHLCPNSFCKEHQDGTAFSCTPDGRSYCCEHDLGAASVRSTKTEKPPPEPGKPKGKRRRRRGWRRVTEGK
Compound,GI50 (SN12K1),GI50 (P388),GI50 (P388/ADR),IC50 [5],IC50 [6],IC50 [7],IC50 (Caspase-3 [8]),also measured
Nc1nc(N)c2nc(CNc3ccc(C(=O)NC(CCCNC(=O)c4ccccc4C(=O)O)C(=O)O)cc3)cnc2n1 (configuration not stated),< 0.01 µM (active),< 0.01 µM (active),< 0.01 µM (active),,,,,
Cc1nc(Nc2ccc(C(=O)O)cc2)sc1-c1ccccc1,,,,,,,,IC50 [1]: 0.787 µM (active); IC50 [2]: 0.797 µM (active); IC50 [3]: 1.88 µM (active); IC50 (Caspase-3 [4]): 10.9 µM (active)
CC(=O)Oc1ccccc1/C=C(\C)c1noc(-c2ccccc2O)n1,,,,> 99 µM (inactive),> 99 µM (inactive),> 99 µM (inactive),> 99 µM (inactive),
COc1cc(OC)cc(C(=O)Nc2ccc(Nc3ccccc3)cc2)c1,,,,,,,,AC50 [9]: 4.09 µM (active); IC50 [1]: 17.8 µM (active); IC50 [2]: 5.27 µM (active); IC50 [3]: 22.5 µM (active); IC50 (Caspase-3 [4]): 30.3 µM (active)
O=C(O)/C=C/c1c[nH]c(=O)[nH]c1=O,> 500 µM (inactive),> 500 µM (inactive),> 500 µM (inactive),,,,,
O=C(Nc1ccc(F)c(F)c1)c1ccc2c(c1)OCO2,,,,8.66 µM (active),2.85 µM (active),8.53 µM (active),3.11 µM (active),
CCCCCCCC/C=C\CCCCCCCCCCCC(=O)O [ERUCIC ACID],9.62 µM (inactive),11.2 µM (inactive),14.4 µM (inactive),,,,,
C[C@@]1(CO)[C@H](O)CC[C@@]2(C)[C@H]1CC[C@H]1C[C@@H]3C[C@@]12CC[C@@]3(O)COC(=O)CN,,1.11 µM (active),0.481 µM (active),,,,,
CCOC(=O)C(C)N1C(=O)c2ccccc2S1(=O)=O (configuration not stated),> 100 µM (inactive),> 100 µM (inactive),> 100 µM (inactive),,,,,
O=C(Nc1nc2ccc(Cl)cc2s1)c1ccc(C(F)(F)F)cc1,,,,> 99 µM (inactive),> 99 µM (inactive),> 99 µM (inactive),> 99 µM (inactive),
Cc1c2cnccc2c(C)c2c1c1ccccc1n2CCCCCCCl,30 µM (inactive),1.77 µM (inactive),22.8 µM (inactive),,,,,
O=C1/C(=C/c2cccc(F)c2)Oc2cc(O)ccc21,,,,12 µM (active),4.4 µM (active),15.8 µM (active),9.25 µM (active),IC50 [1]: 15.9 µM (active); IC50 [2]: 6.09 µM (active); IC50 [3]: 2.29 µM (active); IC50 (Caspase-3 [4]): 18.2 µM (active)
CCCCCSc1cc(OC)c(CCNC)cc1OC,,,,,,,,AC50 [10]: 17.5 µM (active)
N#Cc1c(NC(=O)c2ccc(Cn3cc(Br)cn3)o2)sc2c1CCCCC2,,,,> 99 µM (inactive),> 99 µM (inactive),> 99 µM (inactive),> 99 µM (inactive),AC50 [9]: 2.97 µM (active)
